According to patent publication US20170367338A1, “COMPOSITIONS AND METHODS FOR IMPROVING AGRONOMIC CHARACTERISTICS OF PLANTS” (MONSANTO TECHNOLOGY LLC, priority 2014, published 2017):
≈ marks a conversion by molar mass, not a printed value. Where two headings read alike, the source gives them in different places.

Legend:
Format in all cases: in vivo
C. elegans = test: Three day C. elegans well assay; settings: for EC50: Caenorhabditis elegans
Experimental: Various compounds were tested for nematicidal activity against C. elegans using contact assays in wells. The assays were performed as described below. The test compounds were solubilized in DMSO at 10 mg/ml to create 100× stock solutions. A dilution series was created by diluting the stock solution with DMSO. For each well assay 4 ul of the appropriate dilution is added to a well of a test plate. A 400 ul aliquot of bacterial stock (in M9 buffer with ampicillin and nystatin) are added to each well of the test plate. Worms are added and the test plate placed on a rotary shaker and held at 20° C. Worms are examined and scored at 4 hrs, 24 hrs, 48 hrs and 72 hours. L1 worms and L4 worms were used in the assay. L1 worms are prepared by plating eggs on a plate without a bacterial feeding layer. The eggs hatch and arrest at the L1 stage. This L1 stage population is then used to create a stock for the experiments. To create an L4 stage stock a small number of worms are taken from an overgrown and starved plate of worms and seeded on a plate with a bacterial feeder layer. A 25 ul aliquot of worms is added to each well in the assay.

[1] = system: Heterodera glycines (SCN); test: Seed treatment test of soybean cyst nematode on soybean; settings: Heterodera glycines, 672 h, test b, read-out: percent cyst reduction relative to control blank treatment; for pest or weed control at 0.375 mg/g: 0.375 mg ai/gram seed; for pest or weed control at 1.5 mg/g: 1.5 mg ai/gram seed
Experimental: For a given concentration the chemical is dissolved in 500 ul of acetone and one gram of cucumber seed (RKN test) or soybean seed (SCN test) is added (e.g., 20 mg active ingredient in 500 ul acetone plus 1 gram of seed). The seed solutions are agitated until all seeds were thoroughly covered with the chemical solution. The acetone is then allowed to evaporate by air drying the seeds. The seeds are planted in 2-inch pots containing sandy soil and then the pots are inoculated with 1000 Meloidogyne incognita (RKN) or 1000 Heterodera glycines (SCN) eggs per pot three days after planting. Plants are rated for galling 14 days after egg inoculation for RKN or 28 days after egg inoculation for SCN.

Meloidogyne incognita = test: Summer field evaluation of pre-plant incorporated compounds on squash; settings: 2 kg/ha PPI, squash
Experimental: Test plots of 33 cm diameter holes were bored 41 cm deep into clay soil and filled with a mixture of 80% sand and 20% silt loam soil. Technical compound for each treatment was dissolved in 50 ml acetone containing 250 ul of Triton X-100 surfactant. This solution was added to 450 ml water and poured onto 95 liters of sand/soil mixture in a rotating drum mixer. While continuing to rotate the mixing drum 66 grams of chopped, galled, tomato roots was added and thoroughly distributed. The treated soil was sufficient to fill the top 15 cm of each of the 6 replicate plots, thus simulating a PPI treatment. The plots were then watered lightly and a mixture of M. incognita eggs and larvae were injected 5 cm deep at 5 points within the plot (100k eggs/larvae in 10m1 per plot). Three-week old squash (cv. Liberator III) with 1 fully expanded true leaf was planted 4 days after soil treatment, one per plot.

[2] = 24 h, L1 larvae, one day of exposure, read-out: EC50 L1 1D
[3] = 24 h, L4 larvae, one day of exposure, read-out: EC50 L4 1D
[4] = 48 h, L1 larvae, two days of exposure, read-out: EC50 L1 2D
[5] = 48 h, L4 larvae, two days of exposure, read-out: EC50 L4 2D
[6] = 72 h, L1 larvae, three days of exposure, read-out: EC50 L1 3D
[7] = 72 h, L4 larvae, three days, effects on the second generation larvae, read-out: EC50 L4 3D (F1)

| SMILES | EC50 (C. elegans; [2]) [µg/mL] | EC50 (C. elegans; [3]) [µg/mL] | EC50 (C. elegans; [4]) [µg/mL] | EC50 (C. elegans; [5]) [µg/mL] | EC50 (C. elegans; [6]) [µg/mL] | EC50 (C. elegans; [7]) [µg/mL] | also measured |
| --- | --- | --- | --- | --- | --- | --- | --- |
| Cc1cc(F)ccc1-c1noc(-c2ccco2)n1 [compound 5846] | 1.6 (≈ 6.55 µM) | 1.6 (≈ 6.55 µM) | 0.4 (≈ 1.64 µM) | 1.6 (≈ 6.55 µM) | 0.4 (≈ 1.64 µM) | 1.6 (≈ 6.55 µM) |  |
| Fc1ccc(-c2noc(-c3cccs3)n2)c(F)c1 [compound 5847] |  |  | 0.4 (≈ 1.51 µM) | 1.6 (≈ 6.05 µM) | 0.4 (≈ 1.51 µM) | 1.6 (≈ 6.05 µM) | EC50 L1 1D (C. elegans; L1 larvae, one day of exposure): no; EC50 L4 1D (C. elegans; L4 larvae, one day of exposure): no; pest or weed control at 0.375 mg/g [1]: 66%; pest or weed control at 1.5 mg/g [1]: 80% |
| Fc1cc(Br)ccc1-c1noc(-c2cccs2)n1 [compound 5848] | 1.6 (≈ 4.92 µM) | 1.6 (≈ 4.92 µM) | 0.4 (≈ 1.23 µM) | 1.6 (≈ 4.92 µM) | 0.4 (≈ 1.23 µM) | 1.6 (≈ 4.92 µM) |  |
| Fc1ccc(-c2noc(-c3ccco3)n2)c(F)c1 [compound 5849] | 6.3 (≈ 25.4 µM) |  | 0.4 (≈ 1.61 µM) |  | 1.6 (≈ 6.45 µM) | 6.3 (≈ 25.4 µM) | EC50 L4 1D (C. elegans; L4 larvae, one day of exposure): no |
| Fc1cc(Br)ccc1-c1noc(-c2ccco2)n1 [compound 5850] | 1.6 (≈ 5.18 µM) | 1.6 (≈ 5.18 µM) | 0.4 (≈ 1.29 µM) | 1.6 (≈ 5.18 µM) | 0.4 (≈ 1.29 µM) | 1.6 (≈ 5.18 µM) |  |
| Fc1cc(Cl)ccc1-c1noc(-c2cccs2)n1 [compound 5860] | 1.6 (≈ 5.7 µM) | 1.6 (≈ 5.7 µM) | 0.4 (≈ 1.42 µM) | 1.6 (≈ 5.7 µM) | 0.4 (≈ 1.42 µM) | 1.6 (≈ 5.7 µM) |  |
| Fc1cc(Cl)ccc1-c1noc(-c2ccco2)n1 [compound 5861] | 0.4 (≈ 1.51 µM) | 1.6 (≈ 6.05 µM) | 0.4 (≈ 1.51 µM) | 1.6 (≈ 6.05 µM) | 0.4 (≈ 1.51 µM) | 1.6 (≈ 6.05 µM) |  |
| Fc1cc(F)c(-c2noc(-c3cccs3)n2)c(F)c1 [compound 5878] |  |  |  |  |  |  | pest or weed control at 0.375 mg/g [1]: 43%; pest or weed control at 1.5 mg/g [1]: 77% |
| Clc1ccc(-c2nsc(-c3cccs3)n2)cc1 [compound 5905] | 0.4 (≈ 1.43 µM) |  | 0.4 (≈ 1.43 µM) |  | 0.4 (≈ 1.43 µM) |  |  |
| Clc1ccc(-c2nsc(-c3ccco3)n2)cc1 [compound 5906] | 0.4 (≈ 1.52 µM) |  | 0.4 (≈ 1.52 µM) |  | 0.4 (≈ 1.52 µM) |  |  |
| Fc1cc(Cl)ccc1-c1nsc(-c2ccco2)n1 [compound 5953] |  |  |  |  |  |  | pest or weed control at 0.375 mg/g [1]: 44%; pest or weed control at 1.5 mg/g [1]: 77% |
| CCOP(=O)(SC(C)CC)N1CCSC1=O (stereo not drawn) [fosthiazate] |  |  |  |  |  |  | 0-3 vigor 16DAP (Meloidogyne incognita): 3.0; 0-3 vigor 21DAP (Meloidogyne incognita): 3.0; feeder root (3 = ave) 31DAP (Meloidogyne incognita): 2.3; gall % 31DAP (Meloidogyne incognita): 5%; root wgt (g) 31DAP (Meloidogyne incognita): 26.4 g; top wgt (lbs) 31DAP (Meloidogyne incognita): 2.01 lbs; total fruit (lbs) (Meloidogyne incognita): 1.25 lbs |
